{"source": "patent US10093563B2", "about": "“Method for making chelating base product used in water-based systems” (Earth Science Laboratories, priority 2015, dated 2018)", "system": "Cotton plants (Gossypium hirsutum L.)", "assay": "foliar zinc micronutrient delivery to cotton plants", "format": "in vivo", "details": "for Carotenoids / Chlorophylls / Electron Transport Rate / Membrane Leakage: cotton leaf", "text": "An illustrative example of micronutrient delivery is the delivery of zinc (Zn) complexed to the chelant detailed herein to growing plants via foliar application. In this example, the experiment design was a Randomized Complete Design of 4 treatments of 10 replications for each of five parameters: (1) total chlorophyll by measuring fluorescence, (2) total carotenoids by measuring absorbance following organic solvent extraction, (3) electron transport rate by measuring light absorption and fluorometry, (4) membrane leakage by measuring change in electrolyte concentrations, and (5) leaf tissue concentrations of zinc by digesting samples in nitric acid followed by atomic absorption spectrophotometry. Leaf samples were collected at weekly intervals after squaring. Cotton plants (Gossypium hirsutum L.) were grown in a climate controlled chamber on a 14/10 hour, 30/20° C. diurnal cycle, respectively. Individual plants were grown in 48, 3 liter pots containing nutrient deficient potting soil. Plants received identical treatment for nutrition and growth management until squaring. At squaring, the first round of measurements were made and treatments sprayed via a CO2 backpack sprayer with plants arranged in rows. Sprays were allowed to dry before returning to the climate controlled chamber to minimize cross contamination of treatments due to foliar contact. Plants were then grown for an additional two to three weeks with nutrients being supplied via zinc-free Hoagland's solution without added Zn for treatments: ESL-Zn (base product fluid solution), Zinc Sulfate, and Low Zinc. The elemental composition of Hoagland's solution is as follows: N 210 mg/L, K 235 mg/L, Ca 200 mg/L, P 31 mg/L, S 64 mg/L, Mg 48 mg/L, B 0.5 mg/L, Fe 1 to 5 mg/L, Mn 0.5 mg/L, Zn 0.05 mg/L, Cu 0.02 mg/L, and Mo 0.01 mg/L. The four treatments and descriptions were (1) “Control” (no foliar spray addition of Zn), (2) “Low Zn” (No foliar spray addition and the Zn concentration of the Hoagland's solution was reduced to 0.025 mg/L, (3) “ZnSO4” (Foliar spray equivalent of 1% solution [e.g., 8 lbs. of 36% ZnSO4 in 100 gallons H2O] at 15 gallons/acre, and (4) “ESL-Zn” (Foliar spray equivalent of 1% solution [e.g., 8 lbs. of 36% ZnSO4 in 100 gallons H2O] at 15 gallons/acre).", "key": {"[1]": {"details": "week 1 (at squaring, measured before foliar spray)"}, "[2]": {"details": "week 2, foliar spray equivalent of 1% solution at 15 gallons/acre"}, "[3]": {"details": "week 3, foliar spray equivalent of 1% solution at 15 gallons/acre"}}, "data": [{"smiles": "O=S(=O)([O-])[O-].[Zn+2]", "note": "[ZnSO4, Zinc Sulfate]", "values": [{"measurement": "Carotenoids", "setting": "[1]", "value": "1.713 μg carotenoids/mg dry weight"}, {"measurement": "Chlorophylls", "setting": "[1]", "value": 11.88, "unit": "μg pigments/mg dry weight"}, {"measurement": "Electron Transport Rate", "setting": "[1]", "value": 71, "unit": "μmol electrons m^−2 s^−"}, {"measurement": "Membrane Leakage", "setting": "[1]", "value": 34.68, "unit": "%"}, {"measurement": "Carotenoids", "setting": "[2]", "value": "2.322 μg carotenoids/mg dry weight"}, {"measurement": "Chlorophylls", "setting": "[2]", "value": 12.67, "unit": "μg pigments/mg dry weight"}, {"measurement": "Electron Transport Rate", "setting": "[2]", "value": 70, "unit": "μmol electrons m^−2 s^−"}, {"measurement": "Membrane Leakage", "setting": "[2]", "value": 28.12, "unit": "%"}, {"measurement": "Carotenoids", "setting": "[3]", "value": "1.559 μg carotenoids/mg dry weight"}, {"measurement": "Chlorophylls", "setting": "[3]", "value": 10.72, "unit": "μg pigments/mg dry weight"}, {"measurement": "Electron Transport Rate", "setting": "[3]", "value": 68, "unit": "μmol electrons m^−2 s^−"}, {"measurement": "Membrane Leakage", "setting": "[3]", "value": 27.06, "unit": "%"}, {"measurement": "Zn (leaf tissue concentration)", "setting": "[1]", "value": "27.46 ppm or mg/L"}, {"measurement": "Zn (leaf tissue concentration)", "setting": "[2]", "value": "61.29 ppm or mg/L"}, {"measurement": "Zn (leaf tissue concentration)", "setting": "[3]", "value": "27.52 ppm or mg/L"}]}]}
